Assay results reported in ChEMBL document CHEMBL1132124 (Bioorg Med Chem Lett, 1999).

Target: Glutamate NMDA receptor
Experiment: In vitro concentration eliciting half-maximal effect on [3H]-MK 801 radioligand binding to NMDA receptor; call rule not given here
Format: protein-complex assay

With `O=C1CNCN1O` as the molecule, how does the EC50 read?
Its EC50 is 4.33 µM.

For `C[C@@H]1CN(O)C(=O)[C@@H]1N`, which EC50 is on record?
The EC50 was 9.5 µM.

Test system: not listed separately
Experiment: In vitro maximal effect on [3H]-MK 801 binding to NMDA receptor as compared to a basal value of 100%

For `N[C@@H]1CONC1=O`, which ME is on record?
The ME was 122%.

Which ME does the source give for `O=C1CNCN1O` here?
The ME was 146%.

With `N[C@H](CO)C(=O)O` as the molecule, how does the ME read?
Its ME is 169%.

Which ME does the source give for `NCC(=O)O` here?
Its ME is 159%.

With `C[C@@H]1CN(O)C(=O)[C@@H]1N` as the molecule, how does the ME read?
Its ME is 18%.

Target: T1, Glutamate receptor ionotropic, NMDA 1 (Rattus norvegicus, UniProt P35439)
Experiment: In vitro inhibitory activity to inhibit [3H]glycine binding to NMDA receptor

With `O=C1C(CO)NCN1O` (stereo not drawn) as the molecule, how does the IC50 read?
The IC50 was 78 µM.

Which IC50 does the source give for `CC1NCC(=O)N1O` (stereo not drawn) here?
The IC50 was 83 µM.

Which IC50 does the source give for `CC1NCN(O)C1=O` (stereo not drawn) here?
Its IC50 is 78 µM.

With `C[C@@H]1CN(O)C(=O)[C@@H]1N` as the molecule, how does the IC50 read?
The IC50 was 1.87 µM.

Target: T1, Glutamate receptor ionotropic, NMDA 1
Experiment: In vitro inhibitory activity to inhibit [3H]glycine binding to NMDA receptor; IA means inactive

With `CC1NC(C)N(O)C1=O` (stereo not drawn) as the molecule, how does the IC50 read?
Its IC50 is “Not Active”.

For `NC1CCONC1=O` (stereo not drawn), which IC50 is on record?
The IC50 was “Not Active”.

Which IC50 does the source give for `O=C1CCNCN1O` here?
Its IC50 is “Not Active”.

With `NC1CS(=O)(=O)NC1=O` (stereo not drawn) as the molecule, how does the IC50 read?
Its IC50 is “Not Active”.

With `O=C1CCCN1O` as the molecule, how does the IC50 read?
Its IC50 is “Not Active”.

With `O=C1CNCN1` as the molecule, how does the IC50 read?
Its IC50 is “Not Active”.

With `CC1ONC(=O)C1N` (stereo not drawn) as the molecule, how does the IC50 read?
The IC50 was “Not Active”.
